The subject of this assay is NIH/3T3 fibroblasts. As to the kind of experiment: β-gal activity associated with senescence, etoposide-induced. The format is cell-based, mouse. Conditions: 12.5 µM etoposide 24 h alone; control 8.86%. On the procedure: HaCaT and NIH/3T3 cells were seeded in 12-well plates at a density of 1.5 x 10^5 or 2.5 x 10^4 cells/well, respectively, and adhered for 24 h. Cell senescence was then induced in the HaCaT and NIH/3T3 lines by exposure to 100 µM etoposide (Sigma-Aldrich, St. Louis, MO, USA) for 72 h or 12.5 µM etoposide for 24 h, respectively. After the incubation period, senescent HaCaT and NIH/3T3 cells were treated in the absence or presence of EO (0.16 mg/mL) or HRW (0.8 µg/mL) for 24 h. In the case of NIH/3T3 cells, they were further treated for 24 h with bacterial cellulose membrane extract impregnated with glycerol and 2 µg/cm2 of extract with phenolic compounds obtained from wastewater from hydrodistillation (BC-G-HRW2), prepared from sterile samples (10 cm 2) incubated in 10 ml of DMEM exposure medium. As a control, cells not treated with etoposide were incubated with DMEM exposure medium or similarly prepared BC-G and BC-G-HRW2 membrane extracts. […] Finally, senescent cells were quantified using an inverted microscope (Carl Zeiss, Oberkochen, Germany) at 20x magnification, determining the % of β-gal-positive cells in randomly selected fields in four different images obtained in at least 3 independent experiments performed in duplicate.

SMILES strings stand for the structures.

As for `COc1cc([C@@H]2c3cc4c(cc3[C@@H](O[C@@H]3O[C@@H]5CO[C@@H](C)O[C@H]5[C@H](O)[C@H]3O)[C@H]3COC(=O)[C@H]23)OCO4)cc(OC)c1O` [etoposide], the “number of β-gal-positive associated senescent NIH/3T3 cells” value is 44.11%.
